Data taken from US5510338A, “Phosphonoalkylquinolin-2-ones as novel antagonists of non-NMDA ionotropic excitatory amino acid receptors” (priority 1994, dated 1996).

How the values were obtained:
NMDA = conditions: U.S. Pat. No. 4,657,899; cited from earlier work
kainate receptors = conditions: U.S. Pat. No. 4,657,899, Table I on column 13; cited from earlier work
GLU = experiment: Inhibition of EAA receptor ligand binding, GLU; conditions: read-out: Receptor Potency (Ki), GLU
[1] = target: T1, Glycine (strychnine insensitive glycine binding) (Rattus norvegicus, UniProt P35439); experiment: Strychnine insensitive glycine binding; conditions: read-out: Receptor Potency (Ki), Glycine
T1 construct: from tissue
Experimental: Binding assays for the displacement of ^3 H!AMPA were performed as described by Murphy et al. (Neurochemical Reseach. 12: 775-781 1987!). KA binding assays were performed as described by London et al (Molecular Pharmacology. 15:492-505 1979!); strychnine insensitive glycine binding was evaluated by the method of Snell et al (European Journal of Pharmacology. 156: 105-110 1988!.

[2] = target: CNQX-labeled non-NMDA receptors; experiment: Inhibition of EAA receptor ligand binding, CNQX (CNQX-labeled non-NMDA receptors); conditions: for Ki: inhibition of EAA receptor ligand binding, CNQX-labeled non-NMDA receptors, read-out: Receptor Potency (Ki), CNOX; for selectivity for NMDA vs non-NMDA receptors: in words, from Table II data
[3] = target: KA receptors (KA-induced currents in rat brain mRNA-injected Xenopus oocytes); experiment: Inhibition of KA-induced currents in rat brain mRNA-injected Xenopus oocytes; assay type: cell-based; conditions: for Potency to inhibit KA-induced currents, Ki: rat brain mRNA-injected Xenopus oocytes, voltage clamped at -60 to -70 mV, IC50 converted to Ki by Cheng-Prusoff equation
Experimental: Defolliculated oocytes obtained from Xenopus laevis females were injected with 30-75 ng of poly (A+) mRNA obtained from 21-day old male Sprague-Dawley rats. Oocytes were placed individually in 100 ml of antibiotic-supplemented modified Barthes solution (MBS, containing in mM: NaCl, 88; KCl 1.0; NaHCO3, 2.4 HEPES, 10; MgSO4 0.82; Ca(NO3)2, 0.33) in 96-well sterile plates and cultured for 48-120 hours prior to experimentation. Oocytes were inspected every 24 hours at which time the bathing solution is replaced with fresh MBS.
For electrophysiological studies, oocytes were positioned in a small recording chamber (500 ml) and superfused with antibiotic free MBS supplemented with CaCl2 (final concentration=1.4 mM). Oocytes are impaled with a single glass microelectrode, voltage clamped at -60 to -70 mV, and perfused by gravity feed at a rate of 3-5 ml/min at room temperature. […] Antagonists are coperfused with agonists.
Potencies to inhibit kainic acid-, AMPA- and NMDA/glycine-induced currents are determined from concentration-response curves. IC50 values are converted to Ki values for comparison purposes using the Cheng-Prusoff equation.

## NC(Cc1ccccc1CCP(=O)(O)O)C(=O)O (stereo not drawn) [2-amino-3-2-(2-phosphonoethyl)phenyl!propanoic acid]
NMDA
  NMDA antagonist activity (in words): antagonists of NMDA
Kainate receptors
  binding affinity for kainate receptors (in words): very low binding affinity

## CCC(c1ccccc1CCCP(=O)(O)O)C(N)C(=O)O (stereo not drawn) [2-amino-3-2-(3-phosphonopropyl) phenyl!pentanoic acid]
NMDA
  NMDA antagonist activity (in words): antagonists of NMDA
Kainate receptors
  binding affinity for kainate receptors (in words): very low binding affinity

## NC(Cc1ccccc1CP(=O)(O)O)C(=O)O (stereo not drawn) [2-amino-3-2-phosphonomethylphenyl!propanoic acid]
NMDA
  NMDA antagonist activity (in words): antagonists of NMDA
Kainate receptors
  binding affinity for kainate receptors (in words): very low binding affinity

## NC(CCCc1ccccc1CP(=O)(O)O)C(=O)O (stereo not drawn) [2-amino-5-2-phosphonomethylphenyl!pentanoic acid]
NMDA
  NMDA antagonist activity (in words): antagonists of NMDA
Kainate receptors
  binding affinity for kainate receptors (in words): very low binding affinity

## O=c1cc(CCP(=O)(O)O)c2ccc(Cl)cc2[nH]1 [Example 1, 7-Chloro-4-phosphonethylquinolin-2-one]
GLU
  Ki: 600 µM
[1]
  Ki: 231 µM
[2]
  Ki: 91 µM

## O=c1cc(CP(=O)(O)O)c2ccc(Cl)cc2[nH]1 [Example 2, 7-Chloro-4-phosphonomethylquinolin-2-one]
GLU
  Ki: 30 µM
[3]
  Potency to inhibit KA-induced currents, Ki: 32 µM
[1]
  Ki: 10 µM
[2]
  selectivity for NMDA vs non-NMDA receptors: not very selective
  Ki: 59 µM

## O=c1cc(CP(=O)(O)O)c2c(Cl)cc(Cl)cc2[nH]1 [Example 3, 5,7-Dichloro-4-phosphonomethylquinolin-2-one]
GLU
  Ki: > 100 µM
[3]
  Potency to inhibit KA-induced currents, Ki: 18.2 µM
[1]
  Ki: 28 µM
[2]
  selectivity for NMDA vs non-NMDA receptors: quite selective
  Ki: 38 µM

## O=c1cc(CP(=O)(O)O)c2ccc(I)cc2[nH]1 [Example 4, 7-Iodo-4-phosphonomethylquinolin-2-one]
GLU
  Ki: 35 µM
[3]
  Potency to inhibit KA-induced currents, Ki: 15.6 µM
[1]
  Ki: 29 µM
[2]
  selectivity for NMDA vs non-NMDA receptors: not very selective
  Ki: 26 µM

## O=c1cc(CP(=O)(O)O)c2cc(Cl)c(Cl)cc2[nH]1 [Example 5, 6,7-Dichloro-4-phosphonomethylquinolin-2-one]
GLU
  Ki: > 100 µM
[3]
  Potency to inhibit KA-induced currents, Ki: 9.6 µM
[2]
  selectivity for NMDA vs non-NMDA receptors: quite selective
  Ki: 15 µM

## CCOP(=O)(Cc1cc(=O)[nH]c2cc(Cl)cc(Cl)c12)OCC [Example 21a, 5,7-Dichloro-4-(diethoxyphosphinyl)methylquinolin-2-one]
[3]
  activity in words of related compounds tested: essentially inactive
  Potency to inhibit KA-induced currents, Ki: 480 µM
[1]
  Ki: 103 µM
[2]
  Ki: > 100 µM

## O=C(O)c1cc(CCP(=O)(O)O)c2ccc(Cl)cc2n1 [Example 22, 2-Carboxy-7-chloro-4-phosphonethylquinoline]
GLU
  Ki: > 100 µM
[3]
  Potency to inhibit KA-induced currents, Ki: 450 µM
[1]
  Ki: > 1000 µM
[2]
  Ki: 384 µM

## O=C(O)c1cc(CP(=O)(O)O)c2ccc(Cl)cc2n1 [Example 23, 2-Carboxy-7-chloro-4-phosphonomethylquinoline]
[3]
  Potency to inhibit KA-induced currents, Ki: 129 µM
[1]
  Ki: 68 µM
[2]
  Ki: 64 µM

## O=c1cc(P(=O)(O)O)c2ccc(Cl)cc2[nH]1 [Example 24, 7-Chloro-4-phosphonoquinolin-2-one]
GLU
  Ki: > 300 µM
[3]
  Potency to inhibit KA-induced currents, Ki: > 100 µM
[1]
  Ki: > 1000 µM

## O=c1cc(CP(=O)(O)O)c2ccc(Cl)c([N+](=O)[O-])c2[nH]1 [Example 25, 7-Chloro-8-nitro-4-phosphonomethylquinolin-2-one]
GLU
  Ki: > 1000 µM
[1]
  Ki: > 1000 µM
[2]
  Ki: 300 µM

## O=c1cc(CP(=O)(O)O)c2c([N+](=O)[O-])c(Cl)ccc2[nH]1 [Example 26, 6-Chloro-5-nitro-4-phosphonomethylquinolin-2-one]
GLU
  Ki: > 1000 µM
[3]
  Potency to inhibit KA-induced currents, Ki: > 300 µM
[1]
  Ki: > 1000 µM
[2]
  Ki: > 1000 µM
